In patent US20230002373A1, “COMPOUNDS AND COMPOSITIONS FOR TREATING CONDITIONS ASSOCIATED WITH STING ACTIVITY” (IFM Due, Inc., priority 2019, published 2023):

Biological target: T1, hSTING (Homo sapiens, UniProt Q86WV6, G230A/H232R/R293Q/R71H)
T1 construct: host or cells: THP1-Dual KO-IFNAR2 cells
Test: STING reporter assay (luciferase) in THP1-Dual KO-IFNAR2 cells stimulated with 2′3′cGAMP
Type: cell-based
Conditions: 15 μM 2′3′cGAMP, 24 h, class symbols
Method: STING pathway activation by the compounds described herein was measured using THP1-Dual™ cells (KO-IFNAR2).
THP1-Dual™ KO-IFNAR2 Cells (obtained from invivogen) were maintained in RPMI, 10% FCS, 5 ml P/S, 2 mM L-glut, 10 mM Hepes, and 1 mM sodium pyruvate. Compounds were spotted in empty 384 well tissue culture plates (Greiner 781182) by Echo for a final concentration of 0.0017-100 μM. Cells were plated into the TC plates […], 2×10E6 cells/mL. For activation with STING ligand, 2′3′cGAMP (MW 718.38, obtained from Invivogen), was prepared in Optimem media.
The following solutions were prepared for each 1×384 plate: • Solution A: 2 mL Optimem with one of the following stimuli: • 60 μL of 10 mM 2′3′cGAMP->150 μM stock • Solution B: 2 mL Optimem with 60 μL Lipofectamine 2000->Incubate 5 min at RT
2 mL of solution A and 2 ml Solution B was mixed and incubated for 20 min at room temperature (RT). 20 uL of transfection solution (A+B) was added on top of the plated cells, with a final 2′3′cGAMP concentration of 15 μM. The plates were then centrifuged immediately at 340 g for 1 minute, after which they were incubated at 37° C., 5% CO2, >98% humidity for 24 h. Luciferase reporter activity was then measured. EC50 values were calculated by using standard methods known in the art.
Luciferase reporter assay: 10 μL of supernatant from the assay was transferred to white 384-plate with flat bottom and squared wells. One pouch of QUANTI-Luc™ Plus was dissolved in 25 mL of water. 100 μL of QLC Stabilizer per 25 mL of QUANTI-Luc™ Plus solution was added. 50 μL of QUANTI-Luc™ Plus/QLC solution per well was then added. Luminescence was measured on a Platereader (e.g., Spectramax I3X (Molecular Devices GF3637001)).
Luciferase reporter activity was then measured. EC50 values were calculated by using standard methods known in the art.

T1 sequence (Q86WV6 whole entry R71H/G230A/H232R/R293Q): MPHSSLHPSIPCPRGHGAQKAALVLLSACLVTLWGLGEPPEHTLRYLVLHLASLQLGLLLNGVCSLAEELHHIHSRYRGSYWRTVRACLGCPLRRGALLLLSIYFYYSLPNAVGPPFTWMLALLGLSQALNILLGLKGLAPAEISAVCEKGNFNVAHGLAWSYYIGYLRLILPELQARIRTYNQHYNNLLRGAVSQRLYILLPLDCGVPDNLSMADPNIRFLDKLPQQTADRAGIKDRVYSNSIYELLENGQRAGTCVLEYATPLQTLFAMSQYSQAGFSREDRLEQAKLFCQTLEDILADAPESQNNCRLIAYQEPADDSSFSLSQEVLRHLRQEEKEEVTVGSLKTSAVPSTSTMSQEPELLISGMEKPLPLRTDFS

CC(NC(=O)C(=O)Nc1c[nH]c2cccnc12)c1ccc(C(F)(F)F)cc1 (stereo not shown) [Compound 143, N1-(1H pyrrolo[3,2-b]pyridin-3-yl)-N2-(1-(4-(trifluoromethyl)phenyl)ethyl)oxalamide] and C[C@@H](NC(=O)C(=O)Nc1c[nH]c2c(F)cncc12)c1ccc(C(F)(F)F)cc1 [Compound 205] fall in the same range of EC50: 1 to 5 µM for the first, 1 to 5 µM for the second.

COc1ccc(CNC(=O)C(=O)Nc2c[nH]c3cccnc23)cc1C(F)(F)F [Compound 144, N1-(4-methoxy-3-(trifluoromethyl)benzyl)-N2-(1H-pyrrolo[3,2-b]pyridin-3-yl)oxalamide] and O=C(NCc1ccc(Cl)c(C(F)(F)F)c1)C(=O)Nc1c[nH]c2cccnc12 [Compound 145, N1-(4-chloro-3-(trifluoromethyl)benzyl)-N2-(1H-pyrrolo[3,2-b]pyridin-3-yl)oxalamide] fall in the same range of EC50: 1 to 5 µM for the first, 1 to 5 µM for the second.

First: O=C(NCc1ccc(F)c(OC(F)(F)F)c1)C(=O)Nc1c[nH]c2ccncc12 [Compound 148, N1-(4-fluoro-3-(trifluoromethoxy)-benzyl)-N2-(1H-pyrrolo[3,2-c]pyridin-3-yl)oxalamide]
Second: O=C(NCc1cccc(OC(F)(F)F)c1)C(=O)Nc1c[nH]c2ccncc12 [Compound 173, N1-(1H-pyrrolo[3,2-c]pyridin-3-yl)-N2-(3-(trifluoromethoxy)-benzyl)oxalamide]
The EC50 of the first is lower: 0.2 to 1 µM for the first, 1 to 5 µM for the second.

First: O=C(NCCc1ccc(C(F)(F)F)cc1)C(=O)Nc1c[nH]c2ccncc12 [Compound 153, N1-(1H-pyrrolo[3,2-c]pyridin-3-yl)-N2-(4-(trifluoromethyl)-phenethyl)-oxalamide]
Second: O=C(NCCOc1ccc(C(F)(F)F)cc1)C(=O)Nc1c[nH]c2ccncc12 [Compound 159, N1-(1H-pyrrolo[3,2-c]pyridin-3-yl)-N2-(2-(4-(trifluoromethyl)-phenoxy)ethyl)oxalamide]
The EC50 of the first is lower: 0.2 to 1 µM for the first, 1 to 5 µM for the second. The first is the more potent here.

First: Cc1ccc(OCCNC(=O)C(=O)Nc2c[nH]c3ccncc23)cc1C [Compound 157, N1-(2-(3,4-dimethylphenoxy)ethyl)-N2-(1H-pyrrolo[3,2-c]pyridin-3-yl)oxalamide]
Second: COc1ccc(CNC(=O)C(=O)Nc2c[nH]c3ccncc23)cc1C(F)(F)F [Compound 165, N1-(4-methoxy-3-(trifluoromethyl)-benzyl)-N2-(1H-pyrrolo[3,2-c]pyridin-3-yl)oxalamide]
The EC50 of the first is higher: 5 to 100 µM for the first, 0.2 to 1 µM for the second. The second is the more potent here.

O=C(NCc1cccc2c1OC(F)(F)O2)C(=O)Nc1c[nH]c2ccncc12 [Compound 158, N1-((2,2-difluorobenzo-[d][1,3]dioxol-4-yl)methyl)-N2-(1H-pyrrolo[3,2-c]pyridin-3-yl)oxalamide] and O=C(NCc1cccc(C(F)(F)F)c1F)C(=O)Nc1c[nH]c2ccncc12 [Compound 170, N1-(2-fluoro-3-(trifluoromethyl)-benzyl)-N2-(1H-pyrrolo[3,2-c]pyridin-3-yl)oxalamide] fall in the same range of EC50: 1 to 5 µM for the first, 1 to 5 µM for the second.

Cc1cc(F)c(Cl)cc1NC(=O)C(=O)Nc1c[nH]c2ccncc12 [Compound 162, N1-(5-chloro-4-fluoro-2-methylphenyl)-N2-(1H-pyrrolo[3,2-c]pyridin-3-yl)oxalamide] and Cc1c(NC(=O)C(=O)Nc2c[nH]c3ccncc23)cccc1C(F)(F)F [Compound 175, N1-(2-methyl-3-(trifluoromethyl)-phenyl)-N2-(1H-pyrrolo[3,2-c]pyridin-3-yl)oxalamide] fall in the same range of EC50: 1 to 5 µM for the first, 1 to 5 µM for the second.

First: CC(CNC(=O)C(=O)Nc1c[nH]c2ccncc12)Oc1ccc(C(F)(F)F)cc1 (stereo not shown) [Compound 164, N1-(1H-pyrrolo[3,2-c]pyridin-3-yl)-N2-(2-(4-(trifluoromethyl)-phenoxy)propyl)-oxalamide]
Second: O=C(NCc1ccccc1C(F)(F)F)C(=O)Nc1c[nH]c2ccncc12 [Compound 172, N1-(1H-pyrrolo[3,2-c]pyridin-3-yl)-N2-(2-(trifluoromethyl)-benzyl)-oxalamide]
The EC50 of the first is lower: 1 to 5 µM for the first, 5 to 100 µM for the second. The first is the more potent here.

Compared with O=C(NCCc1ncc(C(F)(F)F)cc1Cl)C(=O)Nc1c[nH]c2ccncc12 [Compound 166, N1-(2-(3-chloro-5-(trifluoromethyl)-pyridin-2-yl)ethyl)-N2-(1H-pyrrolo[3,2-c]pyridin-3-yl)oxalamide], O=C(NCc1ccc(Cl)c(C(F)(F)F)c1)C(=O)Nc1c[nH]c2ccncc12 [Compound 171, N1-(4-chloro-3-(trifluoromethyl)-benzyl)-N2-(1H-pyrrolo[3,2-c]pyridin-3-yl)oxalamide] is lower in EC50: 5 to 100 µM for the first, 0.2 to 1 µM for the second. The second is the more potent here.

First: O=C(NCc1ccc(Cl)cc1C(F)(F)F)C(=O)Nc1c[nH]c2ccncc12 [Compound 167, N1-(4-chloro-2-(trifluoromethyl)-benzyl)-N2-(1H-pyrrolo[3,2-c]pyridin-3-yl)oxalamide]
Second: O=C(NCc1ccc(Cl)c(OC(F)(F)F)c1)C(=O)Nc1c[nH]c2c(F)cncc12 [Compound 208]
The EC50 of the first is lower: 0.2 to 1 µM for the first, 1 to 5 µM for the second. The first is the more potent here.

Compared with Cc1ccc(CNC(=O)C(=O)Nc2c[nH]c3cc(F)cnc23)cc1C(F)(F)F [Compound 174], Cc1ccc2[nH]cc(NC(=O)C(=O)Nc3cnc(N4CCC(F)(F)CC4)c(Cl)c3)c2n1 [Compound 195, N-(5-chloro-6-(4,4-difluoropiperidin-1-yl)pyridin-3-yl)-N′-(5-methyl-1H-pyrrolo[3,2-b]pyridin-3-yl)oxalamide] is higher in EC50: 0.2 to 1 µM for the first, 1 to 5 µM for the second. The first is the more potent here.

First: O=C(Nc1c[nH]c2ncc(F)cc12)C(=O)NC1CCC2(CCCC2)CC1 [Compound 198, N-(5-fluoro-1H-pyrrolo[2,3-b]pyridin-3-yl)-N′-(spiro[4.5]decan-8-yl)oxalamide]
Second: O=C(Nc1c[nH]c2ncc(F)cc12)C(=O)NC1CCC2(CCCC2)C1 (stereo not shown) [Compound 203]
The EC50 of the first is lower: 0.2 to 1 µM for the first, 5 to 100 µM for the second. The first is the more potent here.

Compared with O=C(Nc1c[nH]c2ncc(F)cc12)C(=O)NC1CCC2(CCCCC2)C1 (stereo not shown) [Compound 204, N-(5-fluoro-1H-pyrrolo[2,3-b]pyridin-3-yl)-N′-(spiro[4.5]decan-2-yl)oxalamide], Cc1ccc2[nH]cc(NC(=O)C(=O)Nc3ccc(C4CCCCC4)cn3)c2n1 [Compound 207] is lower in EC50: 5 to 100 µM for the first, 0.2 to 1 µM for the second. The second is the more potent here.

With CC(C)n1cc(-c2ccc3[nH]cc(NC(=O)C(=O)Nc4ccc(C5CCCCC5)cn4)c3n2)cn1 [Compound 206, N-(5-cyclohexylpyridin-2-yl)-N′-(5-(1-isopropyl-1H-pyrazol-4-yl)-1H-pyrrolo[3,2-b]pyridin-3-yl)oxalamide] the EC50 was 1 to 5 µM.

Same assay, conditions: 15 μM 2′3′cGAMP, 24 h, numeric bounds

O=C(NCC1CCCC(F)(F)C1)C(=O)Nc1c[nH]c2ccncc12 (stereo not shown) [Compound 146, N1-((3,3-difluorocyclohexyl)-methyl)-N2-(1H-pyrrolo[3,2-c]pyridin-3-yl)oxalamide] and O=C(NCC1CCC(F)(F)CC1)C(=O)Nc1c[nH]c2ccncc12 [Compound 160, N1-((4,4-difluorocyclohexyl)-methyl)-N2-(1H-pyrrolo[3,2-c]pyridin-3-yl)oxalamide] cannot be ordered by EC50: greater than 30 µM for the first, greater than 30 µM for the second.

O=C(NCCc1cccc(C(F)(F)F)c1)C(=O)Nc1c[nH]c2cccnc12 [Compound 149, N1-(1H-pyrrolo[3,2-b]pyridin-3-yl)-N2-(3-(trifluoromethyl)phenethyl)oxalamide] and O=C(NCc1cccc(OC(F)(F)F)c1)C(=O)Nc1c[nH]c2cccnc12 [Compound 151, N1-(1H pyrrolo[3,2-b]pyridin-3-yl)-N2-(3-(trifluoro-methoxy)benzyl)oxalamide] cannot be ordered by EC50: greater than 30 µM for the first, greater than 30 µM for the second.

O=C(Nc1ccc(OCC(F)(F)F)nc1)C(=O)Nc1c[nH]c2cccnc12 [Compound 150, N1-(1H-pyrrolo[3,2-b]pyridin-3-yl)-N2-(6-(2,2,2-trifluoroethoxy)pyridin-3-yl)oxalamide] and O=C(NCC(F)(F)c1ccccc1)C(=O)Nc1c[nH]c2ccncc12 [Compound 163, N1-(2,2-difluoro-2-phenylethyl)-N2-(1H-pyrrolo[3,2-c]pyridin-3-yl)oxalamide] cannot be ordered by EC50: greater than 30 µM for the first, greater than 30 µM for the second.

O=C(NCC1CCc2ccccc2O1)C(=O)Nc1c[nH]c2ccncc12 (stereo not shown) [Compound 154, N1-(chroman-2-ylmethyl)-N2-(1H-pyrrolo[3,2-c]pyridin-3-yl)oxalamide] and O=C(NCC1(c2ccccc2)CC1)C(=O)Nc1c[nH]c2ccncc12 [Compound 156, N1-((1-phenylcyclopropyl)-methyl)-N2-(1H-pyrrolo[3,2-c]pyridin-3-yl)oxalamide] cannot be ordered by EC50: greater than 30 µM for the first, greater than 30 µM for the second.

O=C(NCCC1(C(F)(F)F)CC1)C(=O)Nc1c[nH]c2ccncc12 [Compound 161, N1-(1H-pyrrolo[3,2-c]pyridin-3-yl)-N2-(2-(1-(trifluoromethyl)-cyclopropyl)-ethyl)oxalamide] and COc1ccc(CNC(=O)C(=O)Nc2c[nH]c3ccncc23)cc1Cl [Compound 168, N1-(3-chloro-4-methoxybenzyl)-N2-(1H-pyrrolo[3,2-c]pyridin-3-yl)oxalamide] cannot be ordered by EC50: greater than 30 µM for the first, greater than 30 µM for the second.
